We go through 1 compound from the NIST ThermoML archive (doi:10.1016/j.tca.2010.05.009).

The conditions of this series: Crystal; Differential scanning calorimeter. A general note: In DSC, transitions show as peaks or steps in heat flow.

Numbers after ± are expanded uncertainties.

Consider `CC(C)Cc1ccc(C(C)C(=O)O)cc1` (stereo unspecified) [ibuprofen], for which the Normal melting temperature amounted to 75.1 ± 1 °C.
